Data published in ChEMBL document CHEMBL2150920, “Discovery of a potent and selective small molecule hGPR91 antagonist” (Bioorg Med Chem Lett, 2011).
Calls of active or inactive are those of the source. No cut-off for these calls is given here.

Assays:
[1] = biological target: T1, Succinate receptor 1 (Homo sapiens) (UniProt Q9BXA5); experiment: Antagonist activity at human GPR91 receptor expressed in CHO-K1 cells co-expressing Galpha and Gqi5 G-protein assessed as inhibition of succinate-induced increase in intracellular calcium level at 10 uM by FLIPR assay; assay type: functional, cell-based
T1 sequence (whole entry): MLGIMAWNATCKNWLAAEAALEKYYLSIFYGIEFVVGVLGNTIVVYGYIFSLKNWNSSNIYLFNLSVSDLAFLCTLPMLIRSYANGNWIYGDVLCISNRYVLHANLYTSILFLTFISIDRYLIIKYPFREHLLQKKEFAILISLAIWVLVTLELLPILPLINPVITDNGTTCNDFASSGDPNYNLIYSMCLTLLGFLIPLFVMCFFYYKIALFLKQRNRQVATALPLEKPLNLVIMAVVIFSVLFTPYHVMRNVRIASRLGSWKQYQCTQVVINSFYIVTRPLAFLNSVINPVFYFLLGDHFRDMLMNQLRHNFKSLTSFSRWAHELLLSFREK

Liver microsomes = experiment: Intrinsic clearance in rat liver microsomes preincubated for 5 mins before addition of NADPH measured after 30 mins by LC/MS/MS analysis; assay type: ADME, Microsome; settings: 0.5 h
Succinate receptor 1 [2] = biological target: T2, Succinate receptor 1 (Rattus norvegicus, UniProt Q6IYF9); experiment: Antagonist activity at rat GPR91 receptor expressed in CHO-K1 cells co-expressing Galpha and Gqi5 G-protein assessed as inhibition of succinate-induced increase in intracellular calcium level by FLIPR assay; assay type: functional, cell-based
T2 sequence (Q6IYF9 whole entry): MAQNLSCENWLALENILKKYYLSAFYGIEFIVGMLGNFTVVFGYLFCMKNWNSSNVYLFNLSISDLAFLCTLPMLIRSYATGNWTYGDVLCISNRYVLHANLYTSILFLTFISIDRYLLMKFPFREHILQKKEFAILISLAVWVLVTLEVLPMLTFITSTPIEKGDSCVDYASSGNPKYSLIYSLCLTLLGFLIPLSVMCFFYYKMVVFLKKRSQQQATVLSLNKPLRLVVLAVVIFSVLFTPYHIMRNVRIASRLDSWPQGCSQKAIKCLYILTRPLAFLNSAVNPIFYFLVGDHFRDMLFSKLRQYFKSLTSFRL

[3] = Volume of distribution at steady state in Wistar rat at 5 mg/kg, iv; assay type: ADME, organism-based; design: dose 5 mg/kg, route intravenous; settings: in vivo, read-out: Vdss
[4] = Terminal half life in Wistar rat at 5 mg/kg, iv; assay type: ADME, organism-based; design: dose 5 mg/kg, route intravenous; settings: in vivo, read-out: beta t1/2 (converted)
[5] = biological target: 2-oxoglutarate receptor 1 (Homo sapiens, UniProt Q96P68); experiment: Antagonist activity at human GPR99 receptor expressed in CHO-K1 cells co-expressing Galpha and Gqi5 G-protein assessed as inhibition of succinate-induced increase in intracellular calcium level at by FLIPR assay; assay type: functional, cell-based
[6] = Cmax in Wistar rat at 5 mg/kg, iv by LC/MS/MS analysis; assay type: ADME, organism-based; design: dose 5 mg/kg, route intravenous; settings: in vivo
[7] = Plasma clearance in Wistar rat at 5 mg/kg, iv; assay type: ADME, organism-based; design: dose 5 mg/kg, route intravenous
Succinate receptor 1 [8] = biological target: T3, Succinate receptor 1 (Homo sapiens, UniProt Q9BXA5); experiment: Antagonist activity at human GPR91 receptor expressed in CHO-K1 cells co-expressing Galpha and Gqi5 G-protein assessed as inhibition of succinate-induced increase in intracellular calcium level by FLIPR assay; assay type: functional, cell-based
T3 sequence (Q9BXA5 whole entry): T1 sequence (whole entry)

[9] = Cmax in Wistar rat at 30 mg/kg, po by LC/MS/MS analysis; assay type: ADME, organism-based; design: dose 30 mg/kg, route oral; settings: in vivo
[10] = Tmax in Wistar rat at 30 mg/kg, po; assay type: ADME, organism-based; design: dose 30 mg/kg, route oral; settings: in vivo
[11] = Plasma concentration in Wistar rat plasma at 30 mg/kg, po at 4 hrs; assay type: ADME, organism-based; design: dose 30 mg/kg, route oral
[12] = Plasma concentration in Wistar rat plasma at 30 mg/kg, po at 2 hrs; assay type: ADME, organism-based; design: dose 30 mg/kg, route oral
[13] = AUC (0 to 24 hrs) in Wistar rat plasma at 30 mg/kg, po; assay type: ADME, organism-based; design: time < 24 hr, dose 30 mg/kg, route oral
[14] = Oral bioavailability in Wistar rat plasma at 30 mg/kg; assay type: ADME, organism-based
[15] = Terminal half life in Wistar rat plasma at 30 mg/kg, po; assay type: ADME, organism-based; design: dose 30 mg/kg, route oral; settings: read-out: beta t1/2 (converted)
[16] = Cmax in Wistar rat at 50 mg/kg, ip by LC/MS/MS analysis; assay type: ADME, organism-based; design: dose 50 mg/kg, route intraperitoneal; settings: in vivo
[17] = Tmax in Wistar rat at 50 mg/kg, ip; assay type: ADME, organism-based; design: dose 50 mg/kg, route intraperitoneal; settings: in vivo
[18] = Plasma concentration in Wistar rat plasma at 50 mg/kg, ip at 8 hrs; assay type: ADME, organism-based; design: dose 50 mg/kg, route intraperitoneal
[19] = AUC (0 to 8 hrs) in Wistar rat plasma at 50 mg/kg, ip; assay type: ADME, organism-based; design: time < 8 hr, dose 50 mg/kg, route intraperitoneal
B1 bradykinin receptor = biological target: T4, B1 bradykinin receptor (Homo sapiens, UniProt P46663); experiment: Antagonist activity at human bradykinin B1 receptor expressed in […] cells assessed as inhibition of calcium flux by FLIPR assay; assay type: functional, cell-based
T4 sequence (P46663 whole entry): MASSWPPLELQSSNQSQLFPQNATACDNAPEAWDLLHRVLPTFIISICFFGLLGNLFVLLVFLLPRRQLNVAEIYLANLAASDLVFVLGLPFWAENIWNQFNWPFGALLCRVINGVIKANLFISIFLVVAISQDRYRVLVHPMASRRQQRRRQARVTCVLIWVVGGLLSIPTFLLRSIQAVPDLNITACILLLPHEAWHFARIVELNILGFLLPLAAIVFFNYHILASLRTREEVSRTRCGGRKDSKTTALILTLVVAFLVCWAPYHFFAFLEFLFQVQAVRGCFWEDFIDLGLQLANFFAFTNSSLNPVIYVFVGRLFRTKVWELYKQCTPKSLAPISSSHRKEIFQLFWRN

[20] = Plasma concentration in Wistar rat plasma at 50 mg/kg, ip at 2 hrs; assay type: ADME, organism-based; design: dose 50 mg/kg, route intraperitoneal
[21] = Plasma concentration in Wistar rat plasma at 50 mg/kg, ip at 4 hrs; assay type: ADME, organism-based; design: dose 50 mg/kg, route intraperitoneal
Rattus norvegicus [22] = experiment: Hypotensive activity in Wistar rat assessed as inhibition of succinate-induced increase in mean arterial pressure at 50 mg/kg, ip after 4 hrs post dose; assay type: functional; settings: Artery, route intraperitoneal
Rattus norvegicus [23] = experiment: Hypotensive activity in Wistar rat assessed as inhibition of succinate-induced increase in mean arterial pressure at 50 mg/kg, ip after 2 hrs post dose; assay type: functional; settings: Artery, route intraperitoneal
[24] = Plasma protein binding in Wistar rat at 50 mg/kg, ip; assay type: ADME, organism-based; design: dose 50 mg/kg, route intraperitoneal; settings: read-out: PPB
[25] = Drug concentration in Wistar rat kidney at 50 mg/kg, ip after 4 hrs; assay type: ADME, organism-based; design: dose 50 mg/kg, route intraperitoneal; settings: read-out: Drug uptake

2-oxoglutarate receptor 1, sequence (Q96P68 whole entry, looked up): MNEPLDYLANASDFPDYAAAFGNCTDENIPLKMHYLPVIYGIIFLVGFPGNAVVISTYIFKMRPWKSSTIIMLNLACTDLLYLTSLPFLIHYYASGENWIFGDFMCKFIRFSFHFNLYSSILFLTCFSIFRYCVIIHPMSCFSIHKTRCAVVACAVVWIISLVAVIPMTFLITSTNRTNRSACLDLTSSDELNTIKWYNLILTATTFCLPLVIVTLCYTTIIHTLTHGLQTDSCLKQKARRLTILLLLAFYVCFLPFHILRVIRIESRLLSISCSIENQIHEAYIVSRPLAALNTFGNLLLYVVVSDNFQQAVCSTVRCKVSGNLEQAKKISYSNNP

| SMILES | inhibition [1] | Intrinsic clearance (Liver microsomes) | IC50 (Succinate receptor 1 [2]) | Vd [3] | half-life [4] | IC50 [5] | Cmax [6] | clearance [7] | IC50 (Succinate receptor 1 [8]) | further results |
| --- | --- | --- | --- | --- | --- | --- | --- | --- | --- | --- |
| O=C(CCCc1ccc2cccnc2n1)NCc1ccc(-c2cccc(CO)c2)cc1 | inactive | 0.1 nmol/min/mg | – | – | – | – | – | – | – | – |
| O=C(NCc1ccc(-c2ccccc2)cc1)c1ccc(-c2ccc3cccnc3n2)cc1 | inactive | 0.02 nmol/min/mg | – | – | – | – | – | – | – | – |
| Clc1cccc(-c2ccc(-c3nnc(CCCc4ccc5cccnc5n4)o3)cc2)c1 | – | 0.3 nmol/min/mg | 67 nM | 1.9 L/kg | 0.9 h | 5000 nM | 9.3 µM | 51 mL/min/kg | 40 nM | – |
| FC(F)(F)Oc1ccc(-c2nnc(CCCCc3ccc4cccnc4n3)o2)cc1Cl | – | 0.17 nmol/min/mg | – | 0.2 L/kg | 1.3 h | > 20000 nM | 56 µM | 2 mL/min/kg | 180 nM | Cmax [9]: 72 µM; Tmax [10]: 1.5 h; concentration at 4 h [11]: 40.5 µM; concentration at 2 h [12]: 70 µM; AUC(0-t) at 24 h [13]: 472 µM·h; bioavailability [14]: 87%; half-life [15]: 3.4 h |
| CCOC(=O)c1cccc(-c2ccc(CNC(=O)CCCc3ccc4cccnc4n3)cc2)c1 | inactive | – | – | – | – | – | – | – | – | – |
| FC(F)(F)c1cc(-c2nnc(CCCCc3ccc4cccnc4n3)o2)ccc1Cl | – | 0.3 nmol/min/mg | 435 nM | 0.1 L/kg | 0.3 h | > 30000 nM | 92 µM | 4.8 mL/min/kg | 160 nM | Cmax [16]: 21 µM; concentration at 2 h [20]: 19 µM; Tmax [17]: 2.7 h; concentration at 4 h [21]: 20 µM; concentration at 8 h [18]: 15 µM; AUC(0-t) at 8 h [19]: 304 µM·h |
| CS(=O)(=O)c1cccc(-c2ccc(CNC(=O)CCCc3ccc4cccnc4n3)cc2)c1 | inactive | 0.1 nmol/min/mg | – | – | – | – | – | – | – | – |

Now from value to molecule, other results behind:

| inhibition [1] | Intrinsic clearance (Liver microsomes) | IC50 (Succinate receptor 1 [2]) | Vd [3] | half-life [4] | IC50 [5] | Cmax [6] | clearance [7] | IC50 (Succinate receptor 1 [8]) | SMILES | further results |
| --- | --- | --- | --- | --- | --- | --- | --- | --- | --- | --- |
| inactive | – | – | – | – | – | – | – | – | O=C(O)Cc1cccc(-c2ccc(CNC(=O)CCCc3ccc4cccnc4n3)cc2)c1 | – |
| inactive | 0.03 nmol/min/mg | – | – | – | – | – | – | – | O=C(CCCc1ccc2cccnc2n1)NCc1ccc(-c2cccc(C(=O)O)c2)cc1 | – |
| – | 0.22 nmol/min/mg | 115 nM | 0.2 L/kg | 1.2 h | 7000 nM | 82.7 µM | 4.4 mL/min/kg | 40 nM | O=C(CCCc1ccc2cccnc2n1)NCc1ccc(-c2cccc(Cl)c2)cc1 | Cmax [16]: 17.8 µM; Tmax [17]: 3.3 h; concentration at 8 h [18]: 15 µM; AUC(0-t) at 8 h [19]: 119 µM·h |
| – | 0.7 nmol/min/mg | – | – | – | – | – | – | 800 nM | COC(=O)c1c(F)cccc1-c1ccc(CNC(=O)CCCc2ccc3cccnc3n2)c(F)c1 | IC50 (B1 bradykinin receptor): 2500 nM |
| – | 1.2 nmol/min/mg | 7 nM | 0.5 L/kg | 0.1 h | > 30000 nM | 19 µM | 64.7 mL/min/kg | 30 nM | Cc1cccc(-c2ccc(CNC(=O)CCCc3ccc4cccnc4n3)cc2)c1 | inhibition in vivo at 50 mg/kg (Rattus norvegicus [22]): 67%; inhibition in vivo at 50 mg/kg (Rattus norvegicus [23]): 71%; Cmax [16]: 3.7 µM; concentration at 2 h [20]: 1.8 µM; Tmax [17]: 1.8 h; fraction unbound [24]: 0.01; concentration at 4 h [25]: 7 µM; concentration at 4 h [21]: 2 µM; concentration at 8 h [18]: 1.1 µM; AUC(0-t) at 8 h [19]: 17.4 µM·h |
| inactive | 0.08 nmol/min/mg | – | – | – | – | – | – | – | O=C(CCCc1ccc2cccnc2n1)NCc1ccc(-c2cccc(F)c2C(=O)O)cc1F | – |
